Values quoted from earlier work as cited in US20220125792A1, “USE OF COMPOSITION CONTAINING CDK4/6 INHIBITOR IN COMBINATION WITH ANASTROZOLE IN PREPARATION OF MEDICAMENT FOR TREATING TUMOR DISEASES” (Jiangsu Hengrui Medicine Co., Ltd., priority 2019, published 2022).

Experiments:
[1] = tested on: systemic aromatization and plasma estrogen level; conditions: letrozole 2.5 mg once a day, postmenopausal women with metastatic breast cancer

## N#Cc1ccc(C(c2ccc(C#N)cc2)n2cncn2)cc1 [letrozole]
[1]
  inhibition of systemic aromatization and plasma estrogen level, compared with anastrozole (1 mg daily): more effective systemic aromatization and plasma estrogen level inhibitor than anastrozole
Advanced breast cancer; European Journal of Cancer 39 (2003) 2318-2327
  total remission rate (ORR), letrozole versus anastrozole: significantly superior to anastrozole
Advanced breast cancer; open randomized trial
  response of advanced breast cancer, second-line hormonal therapy, letrozole versus anastrozole: responded more strongly to letrozole than to anastrozole
